Article PMC11881906, “Development of xanthone derivatives as effective broad-spectrum antimicrobials: Disrupting cell wall and inhibiting DNA synthesis” (Science Advances, 2025)
≈ marks a conversion by molar mass, not a printed value. Read-outs that look alike come from different tables or passages of the source.

Experiments:
E. coli ATCC 25922 = assay: MIC, broth microdilution; format: cell-based, Escherichia coli; conditions: Escherichia coli, ATCC25922, 24 h, 24-hour incubation, MHB; read-out: MIC90 E. coli ATCC 25922
Method: (§1) MIC was determined using the broth microdilution method in accordance with Clinical and Laboratory Standards Institute guidelines. All compounds were dissolved in dimethyl sulfoxide (DMSO; final DMSO concentration of less than 0.5%) and sterile double-distilled water and then diluted with Mueller-Hinton broth (MHB). Each compound’s stock solution was serially twofold diluted, resulting in concentrations ranging from 0.39 to 100 μg/ml, and thereafter added to sterile 96-well plates. All bacterial cell suspensions were adjusted in MHB to attain a starting inoculum of 1 × 10^6 cells/ml. A total of 100 μl volume of the bacterial suspension was then added to each well. Following a 24-hour incubation at 37°C, the optical density at 600 nm (OD600) was confirmed by measuring absorbance at 600 nm with a BioTek microplate reader. […] All measurements were repeated three times with duplicates each time.

rabbit erythrocytes = assay: Hemolysis assay; format: cell-based; conditions: concentration causing 50% hemolysis of red blood cells; 1 hour, 37°C
Method: The hemolytic activity of antimicrobial agents was investigated as previously described ([70]). Briefly, the rabbit erythrocytes were centrifuged at 2500 rpm for 3 min before being washed twice with sterile phosphate-buffered saline (PBS) (pH 7.4). Subsequently, the erythrocytes were diluted with PBS to a final concentration of 8% (v/v). The DMSO-dissolved compounds were twofold serially diluted in PBS to achieve a final concentration with DMSO less than 0.5%. […] Sterile PBS and 0.2% Triton X-100 were used as negative and positive controls, respectively. After 1 hour of incubation at 37°C, the tested samples were centrifuged at 2500 rpm for 5 min, and aliquots of the supernatant were added to 96-well microplates. The hemoglobin release was determined by measuring the absorbance at 576 nm using a BioTek multimode reader. The percentage of hemolytic activity was calculated using the following formula: Hemolysis rate (%) = [OD576 (compound) − OD576 (PBS)]/[OD576 (Triton X-100) − OD576 (PBS)] × 100. All measurements were repeated three times with duplicates each time.

K. pneumonia ATCC 14581 = assay: MIC, broth microdilution; format: cell-based; conditions: Klebsiella pneumoniae, ATCC14581; 24-hour incubation, MHB
Method: as §1

K. pneumonia ATCC 10031 = assay: MIC, broth microdilution; format: cell-based; conditions: Klebsiella pneumoniae, ATCC10031; 24-hour incubation, MHB
Method: as §1

A. baumannii ATCC 17978 = assay: MIC, broth microdilution; format: cell-based; conditions: Acinetobacter baumannii, ATCC17978; 24-hour incubation, MHB
Method: as §1

S. aureus ATCC 29213 = assay: MIC, broth microdilution; format: cell-based; conditions: Staphylococcus aureus, ATCC29213, 24 h, 24-hour incubation, MHB; read-out: MIC90 S. aureus ATCC 29213
Method: as §1

MRSA NCTC 10442 = assay: MIC, broth microdilution; format: cell-based; conditions: Staphylococcus aureus; 24-hour incubation, MHB; read-out: MIC90 MRSA NCTC 10442
Method: as §1

P. aeruginosa ATCC 9027 = assay: MIC, broth microdilution; format: cell-based; conditions: Pseudomonas aeruginosa, ATCC9027; 24-hour incubation, MHB
Method: as §1

MRSA N315 = assay: MIC, broth microdilution; format: cell-based; conditions: Staphylococcus aureus, 24-hour incubation, MHB, read-out: MIC90 MRSA N315
Method: as §1

A. baumannii R2889 = assay: MIC, broth microdilution; format: cell-based; conditions: Acinetobacter baumannii, 24-hour incubation, MHB
Method: as §1

[1] = not the whole compound, cited from earlier work
[2] = test system: tested strains (Gram-positive and Gram-negative bacteria); assay: MIC, summary over the tested strains; format: cell-based; conditions: read-out: MICs against the tested strains
Method: as §1

Gram-negative bacteria = assay: MIC, Gram-negative strains; format: cell-based; conditions: read-out: MICs against Gram-negative bacteria
Method: as §1

Gram-positive bacteria = assay: MIC, summary over Gram-positive strains; format: cell-based; conditions: read-out: MICs against Gram-positive bacteria, three Gram-positive strains
Method: as §1

[3] = Gram-positive and Gram-negative strains

SMILES | MIC90 (E. coli ATCC 25922) [µg/mL] | HC50 (rabbit erythrocytes) [µg/mL] | MIC90 (K. pneumonia ATCC 14581) [µg/mL] | MIC90 (K. pneumonia ATCC 10031) [µg/mL] | MIC90 (A. baumannii ATCC 17978) [µg/mL] | MIC90 (S. aureus ATCC 29213) [µg/mL] | MIC90 (MRSA NCTC 10442) [µg/mL] | MIC90 (P. aeruginosa ATCC 9027) [µg/mL] | MIC90 (MRSA N315) [µg/mL] | MIC90 (A. baumannii R2889) [µg/mL] | pKa ([1]; for the free primary amine group) | MIC ([2]; 24 h) [µg/mL] | MIC [2, 3] [µg/mL] | pKa ([1]; for the free thiomorpholine group) | MIC (Gram-negative bacteria) [µg/mL] | MIC (Gram-positive bacteria) [µg/mL]
CC1(C)S[C@@H]2[C@H](NC(=O)[C@H](N)c3ccc(O)cc3)C(=O)N2[C@H]1C(=O)O [AMO, amoxicillin, reference compound] | 6.25 (≈ 17.1 µM) | >200 |  |  |  |  |  |  |  |  |  |  |  |  |  | 
O=c1c2ccc(O)cc2oc2cc(O)cc(O)c12 [XT01] | > 100 | >200 | > 50 | > 50 | > 50 | 50 (≈ 205 µM) | 50 (≈ 205 µM) | > 50 | 50 (≈ 205 µM) | > 50 |  |  |  |  |  | 
CC(C)=CCOc1cc(OCCCN)cc2oc3cc(OCCCN)ccc3c(=O)c12 [XT07] | 25 (≈ 58.6 µM) | >200 |  |  |  | 12.5 (≈ 29.3 µM) | 12.5 (≈ 29.3 µM) |  | 12.5 (≈ 29.3 µM) |  | 10.54 | 12.5 to 50 (≈ 29.3 to 117 µM) |  |  |  | 
CNCCCOc1ccc2c(=O)c3c(OCC=C(C)C)cc(OCCCNC)cc3oc2c1 [XT08] | 25 (≈ 55 µM) | >200 |  |  |  | 12.5 (≈ 27.5 µM) | 12.5 (≈ 27.5 µM) |  | 12.5 (≈ 27.5 µM) |  |  |  | 6.25 to 50 (≈ 13.7 to 110 µM) |  |  | 
CCN(CC)CCCOc1ccc2c(=O)c3c(OCC=C(C)C)cc(OCCCN(CC)CC)cc3oc2c1 [XT09] | 50 (≈ 92.8 µM) | >200 |  |  |  | 6.25 (≈ 11.6 µM) | 6.25 (≈ 11.6 µM) |  | 12.5 (≈ 23.2 µM) |  |  |  | 6.25 to 50 (≈ 11.6 to 92.8 µM) |  |  | 
CCCCN(CCCC)CCCOc1ccc2c(=O)c3c(OCC=C(C)C)cc(OCCCN(CCCC)CCCC)cc3oc2c1 [XT10] | > 50 | >200 |  |  |  | 12.5 (≈ 19.2 µM) | 12.5 (≈ 19.2 µM) |  | 6.25 (≈ 9.6 µM) |  |  |  |  |  |  | 
CC(C)=CCOc1cc(OCCCN2CCSCC2)cc2oc3cc(OCCCN4CCSCC4)ccc3c(=O)c12 [XT11] | > 50 | >200 |  |  |  | > 50 | > 50 |  | > 50 |  |  | > 50 |  | 9.0 |  | 
CC(C)=CCOc1cc(OCCCN2CCCC2)cc2oc3cc(OCCCN4CCCC4)ccc3c(=O)c12 [XT12] | 25 (≈ 46.8 µM) | >200 |  |  |  | 6.25 (≈ 11.7 µM) | 6.25 (≈ 11.7 µM) |  | 12.5 (≈ 23.4 µM) |  |  |  | 6.25 to 25 (≈ 11.7 to 46.8 µM) |  |  | 
CC(C)=CCOc1cc(OCCCNCCN(CCN)CCN)cc2oc3cc(OCCCNCCN(CCN)CCN)ccc3c(=O)c12 [XT13] | 50 (≈ 73 µM) | >200 |  |  |  | 6.25 (≈ 9.13 µM) | 6.25 (≈ 9.13 µM) |  | 6.25 (≈ 9.13 µM) |  |  |  | 6.25 to 50 (≈ 9.13 to 73 µM) |  |  | 
CNCCCOc1ccc2c(=O)c3c(OCCCC(F)(F)F)cc(OCCCNC)cc3oc2c1 [XT16] | > 100 | >200 |  |  |  | 50 (≈ 101 µM) | > 50 |  | > 50 |  |  | 50 to 100 (≈ 101 to 201 µM) |  |  |  | 
[H]/N=C(/N)NCCCOc1ccc2c(=O)c3c(OCC=C(C)CCC=C(C)C)cc(OCCCNC(=N)N)cc3oc2c1 [XT18] | 1.56 (≈ 2.7 µM) | 65.3 ± 2.75 | 12.5 (≈ 21.6 µM) | 6.25 (≈ 10.8 µM) | 25 (≈ 43.2 µM) | 0.78 (≈ 1.35 µM) | 0.78 (≈ 1.35 µM) | 12.5 (≈ 21.6 µM) | 0.78 (≈ 1.35 µM) | 12.5 (≈ 21.6 µM) |  |  |  |  | 1.56 (≈ 2.7 µM) | 0.39 (≈ 0.674 µM)
COc1cc(OCCCNC(=N)N)cc2oc3cc(OCCCNC(=N)N)ccc3c(=O)c12 [XT19] | 100 (≈ 219 µM) | >200 |  |  |  | 6.25 (≈ 13.7 µM) | 6.25 (≈ 13.7 µM) |  | 12.5 (≈ 27.4 µM) |  |  |  |  |  | 100 (≈ 219 µM) | 6.25 to 12.5 (≈ 13.7 to 27.4 µM)
